Assay results taken from paper PMC9124651, “High-performance thin-layer chromatography in combination with an acetylcholinesterase-inhibition bioassay with pre-oxidation of organothiophosphates to determine neurotoxic effects in storm, waste, and surface water” (Analytical and Bioanalytical Chemistry, 2022).
pIC50: −log10 of the molar value. In brackets after ≈: the same amount, converted by molar mass.

Experiments:
[1] = target: T1, AChE from electric eel (Electrophorus electricus) (Electrophorus electricus, UniProt O42275); assay: AChE-inhibition microtiter assay (Ellman, 96-well, with or without NBS oxidation); format: biochemical; details: for IC80 / IC20: no oxidation, 4-PL fit, n = 4; for IC80: read-out: IC20 (inhibition concentration for 20% AChE activity), best fit; for IC20: read-out: IC80 (inhibition concentration for 80% AChE activity), best fit
T1 construct: purchased Sigma-Aldrich GmbH (Steinheim, Germany)
T1 sequence (O42275 24-633): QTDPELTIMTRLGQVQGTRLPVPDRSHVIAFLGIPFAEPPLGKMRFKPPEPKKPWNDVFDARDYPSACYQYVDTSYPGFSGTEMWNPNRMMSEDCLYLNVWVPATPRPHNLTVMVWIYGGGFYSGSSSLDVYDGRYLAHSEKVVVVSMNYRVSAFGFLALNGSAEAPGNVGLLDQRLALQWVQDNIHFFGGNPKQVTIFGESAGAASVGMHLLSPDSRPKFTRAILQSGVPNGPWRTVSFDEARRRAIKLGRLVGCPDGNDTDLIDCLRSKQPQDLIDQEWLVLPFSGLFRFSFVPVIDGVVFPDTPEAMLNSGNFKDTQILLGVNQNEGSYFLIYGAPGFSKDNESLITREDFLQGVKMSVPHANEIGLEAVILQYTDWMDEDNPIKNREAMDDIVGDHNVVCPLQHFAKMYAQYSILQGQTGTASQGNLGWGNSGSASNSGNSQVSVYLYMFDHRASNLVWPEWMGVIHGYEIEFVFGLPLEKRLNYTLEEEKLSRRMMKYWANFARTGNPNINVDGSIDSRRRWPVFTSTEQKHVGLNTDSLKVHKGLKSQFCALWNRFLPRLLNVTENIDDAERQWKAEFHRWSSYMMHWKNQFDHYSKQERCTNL
Method: Stock solutions (1 mg/mL) of NBS and ascorbic acid were each freshly prepared before the test and then diluted to 10 µg/mL and 100 µg/mL, respectively. The assay was performed with modifications according to Ellman’s method. OTPs, oxons, water, and methanol blanks (15 µL) were each mixed with 15 µL of NBS (10 µg/mL) in a 96-well plate. After an incubation at room temperature for 5 min, the reaction was stopped by adding 15 µL ascorbic acid (100 µg/mL). For the test setup without oxidation, OTPs, oxons, water, and methanol blanks (15 µL) were mixed with 30 µL water per well. Subsequently, 200 µL of a DTNB solution (0.15 mM), buffered in TRIS/HCl at a pH of 7.4, was added to each well of both test setups. Then, 20 µL of an AChE solution (0.5 U/mL), also buffered in TRIS/HCl at a pH of 7.4, was added. An incubation at 30 °C for 30 min without shaking followed. An ATCL solution (0.8 mM) was freshly prepared with water and 30 µL per well was added after incubation. During another incubation at room temperature for 30 min, ATCL was cleaved by AChE into thiocholine and acetic acid. Thiocholine reacts with DTNB to 2-nitro-5-thiobenzoate. The absorbance of the yellow-colored anion was photometrically measured at 405 nm (Sunrise Remote, Tecan Group AG, Männedorf, Schweiz).
Dilution series with eight concentrations of the three OTPs and related oxons (Tab. S1) were freshly prepared from stock solutions (1–10 mg/mL) in methanol. The OTPs and oxons were tested in duplicates with and without prior oxidation in two measurements as described in the “AChE-inhibition microtiter assay” section. Eight water and eight methanol blanks were tested per test setup (oxidation and no oxidation). Of these, two were tested without AChE and two without ATCL. The mean AChE activity (absorption at 405 nm, n = 4) was related to the specific inhibitor dose. The statistic program Prism (version 5.00, Graph Pad Software, San Diego, USA) was used to generate dose–response curves (4-PL fit) and to determine inhibition concentrations (ICs) for the three OTPs and related oxons. The 95% confidence intervals of the curves and the standard deviations of the mean AChE activity were also calculated. The lower boundary of the curves is fixed to 0 and the highest mean activity defines 100%.

[2] = target: T1, AChE from electric eel (Electrophorus electricus); assay: HPTLC-(Ox)-AChE-I assay, spray method (AChE sprayed onto plates); format: biochemical; details: spray method, without oxidation; for IC10 (10% AChE inhibition), best fit / IC20 (20% AChE inhibition), best fit / IC50 (50% AChE inhibition), best fit / IC80 (80% AChE inhibition), best fit: OTPs 100 µL, oxons 10 µL applied, peak heights, n = 3
Method: LiChrospher 10 × 20 cm HPTLC Silica gel 60 F254s plates (Merck, Darmstadt, Germany) with a layer thickness of 170–190 µm and spherical silica particles with a size of 7 µm were used. The HPTLC plates were immersed twice in 2-propanol for 20 min, each time followed by a drying step at room temperature for 20 min. The plates then were pre-developed with methanol, dried for 20 min at room temperature, heated at 105 °C for 20 min, and stored in a desiccator for further use. The automatic TLC Sampler 4 (ATS 4, CAMAG AG, Muttenz, Switzerland) was used for sample application. The desired sample volumes were sprayed as 6-mm-wide bands onto the HPTLC plates with an application speed of 300 nL/s. The distances of the exterior bands from the edges of the plates were 15 mm. The distance from the bottom edge was 8 mm for all bands. Methanol was used as rinsing solvent. The following further application parameters were used: filling speed 15 µL/s, pre-dosage volume 200 nL, retraction volume 200 nL, rinsing vacuum time 4 s, filling vacuum time 0 s, rinsing cycles 2, and filling cycles 1. The development of the HPTLC plates was realized by the Automated Multiple Development 2 (AMD 2, CAMAG, Muttenz, Switzerland). The OTPs, their oxons, and environmental samples were separated with an eluent mixture of cyclohexane, dichloromethane, and acetone in different proportions and with increasing migration distances (Fig. S2). After each development step, a drying step of 3 min under vacuum followed. The final migration distance was 80 mm and the whole procedure took approximately 45 min. In addition, a simpler development process was used containing only the last step of the previous described method.
The following AChE-I assay was performed in parts according to Mendoza et al., Stütz et al., and Weins and Jork. AChE was buffered in TRIS/HCl at a pH of 7.8 (2.5 U/mL). The AChE solution was either sprayed onto the HPTLC plates with a glass reagent sprayer until the plates were evenly moist (approx. 10 mL) or the plates were immersed in the AChE solution using the Chromatogram Immersion Device 3 (CID 3, CAMAG, Muttenz, Switzerland). The immersion volume, speed, time, and depth were approx. 200 mL, 2.5 cm/s, 2 s, and approx. 85 mm, respectively. Afterward, the plates were placed separately in closed plastic boxes, which contained paper towels moistened with water to gain a saturated atmosphere. An incubation at 37 °C for 5 min followed. The substrate indoxyl acetate was freshly prepared in methanol at a concentration of 20 mg/mL and 5 mL was sprayed onto the HPTLC plates with a glass reagent sprayer. During 45-min incubation time at room temperature, AChE cleaves the substrate into indoxyl and acetate. The indoxyl reacts with oxygen to the blue indigo dye. When AChE was inhibited, no indigo was produced and the spot stayed white. The TLC Scanner 3 (CAMAG, Muttenz, Switzerland) was used to scan each track on the plates at 670 nm using the fluorescence mode without optical filter. The CAMAG-embedded software Wincats (Vers. 1.4.9) was used to provide chromatograms of each track and to evaluate inhibition zones.
Several amounts of an OTP mix and an oxon mix were applied on HPTLC plates (Tab. S2) and tested as described in the “Combination of HPTLC and AChE-inhibition assay” section. Three plates were used for each dilution series. The application volume was 10 µL for investigating OTPs with following oxidation and 100 µL for testing OTPs without following oxidation. The application volume for the oxons was 10 µL. They were tested without oxidation step also in triplicates. The peak heights were used for evaluation. Only peaks that have a signal-to-noise ratio ≥ 3 were considered in the evaluation. The height next to the respective peak defines the noise.

| SMILES | IC80 [1] | IC20 [1] | LOD spray method (first detected AChE-I peak with signal-to-noise ratio ≥ 3) [2] | IC10 (10% AChE inhibition), best fit [2] | IC20 (20% AChE inhibition), best fit [2] | IC50 (50% AChE inhibition), best fit [2] | IC80 (80% AChE inhibition), best fit [2] | pIC50 [1] |
| --- | --- | --- | --- | --- | --- | --- | --- | --- |
| CCOP(=O)(OCC)Oc1nc(Cl)c(Cl)cc1Cl [Chlorpyrifos-oxon] | 16 ng/mL (≈ 0.0478 µM) | 3.8 ng/mL (≈ 0.0114 µM) | 0.25 ng/spot | 0.72 ng/spot | 1.1 ng/spot | 2.5 ng/spot | 5.4 ng/spot | – |
| CCOC(=O)CC(SP(=O)(OC)OC)C(=O)OCC (stereo not drawn) [Malaoxon, malaoxon] | 42 ng/mL (≈ 0.134 µM) | 3.5 ng/mL (≈ 0.0111 µM) | 0.1 ng/spot | 0.16 ng/spot | 0.28 ng/spot | 0.75 ng/spot | 2.0 ng/spot | 7.42 |
